Data set [1] in a line: Cytotoxicity assay. The data set is classed as cell-based, human. Conditions: human, CEM cells (T-lymphoblast leukemia).
The target of data set [2] is hCXCR4 (Homo sapiens, UniProt P61073). Briefly: Radioligand [125I]SDF-1α binding to hCXCR4-transfected HEK293 membrane. Conditions: for fold decrease in CXCR4 binding affinity compared to compound 18: relative to compound 18; for fold decrease in CXCR4 binding compared to compound 25: relative to compound 25; for fold increase in CXCR4 binding affinity compared to compound 4: relative to compound 4.
hCXCR4, sequence (P61073 whole entry): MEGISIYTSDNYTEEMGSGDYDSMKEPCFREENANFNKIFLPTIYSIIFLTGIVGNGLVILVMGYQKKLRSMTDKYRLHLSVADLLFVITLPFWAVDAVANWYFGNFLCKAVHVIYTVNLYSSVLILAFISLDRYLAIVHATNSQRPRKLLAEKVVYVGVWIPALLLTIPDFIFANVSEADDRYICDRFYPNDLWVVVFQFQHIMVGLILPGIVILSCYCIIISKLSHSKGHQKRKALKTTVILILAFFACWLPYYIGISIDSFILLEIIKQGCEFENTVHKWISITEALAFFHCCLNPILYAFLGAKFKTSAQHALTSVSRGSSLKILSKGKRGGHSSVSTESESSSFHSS

Data set [3] in a line: Cytotoxicity assay. The class given is cell-based. Conditions: human, TZM-bl cells.
For data set [4], the system named is CEM cells. Briefly: Cytotoxicity assay. The data set is classed as cell-based, human. Conditions: for CC50: read-out: Cytotoxicity CC50 CEM, CEM cells, 72 h.
Data set [5] deals with HIV-1 IIIB. Briefly: Luciferase activity assay of HIV-1 infectivity in TZM-bl cells. The data set is classed as cell-based. Conditions: read-out: Anti-HIV EC50.
Data set [6] concerns TZM-bl cells. In words: Cytotoxicity assay. The class given is cell-based. Conditions: for CC50: read-out: Cytotoxicity CC50 TZM-bl, TZM-bl cells, 72 h.
The mark [7] stands for this setting: TZM-bl cells, HIV-1 IIIB, M.O.I. 1.

Where two headings read alike, the source gives them in different places.

Turning to `c1nc2c(NCc3ccc(CNCCCNC4CCCCC4)cc3)nc(N3CCC(C4CCNCC4)CC3)nc2[nH]1` [Compound 21, N-{4-[(2-[4,4′]Bipiperidinyl-1-yl-9H-purin-6-ylamino)-methyl]-benzyl}-N′-cyclohexyl-propane-1,3-diamine], in data set [1], the CC50 at 72 h was above 50 µM and the selectivity ratio at 72 h is above 593. In data set [2], the “fold decrease in CXCR4 binding affinity compared to compound 18” value (shortened to “fold decrease in CXCR4 binding affinity”) is reported as 2−3 fold. In data set [3], the half-maximal cytotoxic concentration (CC50) at 72 h is above 50 µM and the selectivity ratio at 72 h is above 593.
For `c1nc2c(NCc3cncc(CNCCCNC4CCCCC4)c3)nc(N3CCNCC3)nc2[nH]1` [Compound 27, N-Cyclohexyl-N′-{5-[(2-piperazin-1-yl-9H-purin-6-ylamino)-methyl]-pyridin-3-ylmethyl}-propane-1,3-diamine], the CC50 at 72 h in data set [1] and in data set [3] was above 50 µM in each case. In addition, the selectivity ratio at 72 h in data set [1] and in data set [3] was above 8770 each time. Further, the “fold decrease in CXCR4 binding compared to compound 25” value in data set [2] is 4−10 fold.
In the case of `COc1ccc2nc(NCc3ccc(CNCCCN4CCCCC4)cc3)nc(NC3CCNCC3)c2c1` [Compound 15, 6-Methoxy-N^4-piperidin-4-yl-N^2-{4-[(3-piperidin-1-yl-propy-lamino)-methyl]-benzyl}-quinazoline-2,4-diamine], in data set [4], the “Selective Index CC50/EC50 CEM” value is given as 196 and the 50% cytotoxic concentration (CC50) was determined as 18.4 ± 5.5 µM. The EC50 in data set [5] (setting [7]) is 0.0939 ± 0.0147 µM. In data set [6], the “Selective Index CC50/EC50 TZM-bl” value is listed as 261 and the CC50 worked out at 24.5 ± 2.5 µM.
As for `COc1ccc2nc(NCc3ccc(CNCCCNC4CCCCC4)cc3)nc(NC3CCNCC3)c2c1` [Compound 9, N^2-{4-[(3-Cyclohexylamino-propylamino)-methyl]-benzyl}-6-methoxy-N^4-piperidin-4-yl-quinazoline-2,4-diamine], in data set [1], the midpoint of cytotoxicity, the CC50 at 72 h, lay at 8 ± 1.7 µM and the selectivity ratio at 72 h stood at 169. Further, the “fold increase in CXCR4 binding affinity compared to compound 4” value (shortened to “fold increase in CXCR4 binding affinity”) in data set [2] is listed as 4−5 fold. Further, in data set [3], the CC50 at 72 h turned out to be 8.4 ± 1 µM and the selectivity ratio at 72 h turned out to be 177.
In the case of `Cn1cnc2c(NCc3ccc(CNCCCNC4CCCCC4)cc3)nc(N3CCNCC3)nc21` [Compound 19, N-Cyclohexyl-N′-{4-[(9-methyl-2-piperazin-1-yl-9H-purin-6-ylamino)-methyl]-benzyl}-propane-1,3-diamine], in data set [1], the half-maximal cytotoxic concentration (CC50) at 72 h was 20.2 ± 1.5 µM and the selectivity ratio at 72 h was determined as 5940. The “fold decrease in CXCR4 binding affinity” value in data set [2] was 4−5 fold. Further, in data set [3], the half-maximal cytotoxic concentration (CC50) at 72 h turned out to be 18.6 ± 2 µM and the selectivity ratio at 72 h amounted to 5470.
In the case of `c1nc2c(NCc3ccc(CNCCCNC4CCCCC4)cn3)nc(N3CCNCC3)nc2[nH]1` [Compound 22, N-Cyclohexyl-N′-{6-[(2-piperazin-1-yl-9H-purin-6-ylamino)-methyl]-pyridin-3-ylmethyl}-propane-1,3-diamine], in data set [1], the cytotoxic concentration (CC50) at 72 h was above 50 µM and the selectivity ratio at 72 h was above 11900. Further, the “fold decrease in CXCR4 binding affinity” value in data set [2] was 2 fold. In addition, in data set [3], the CC50 at 72 h was above 50 µM and the selectivity ratio at 72 h was above 11900.
For `COc1cc2nc(NCc3ccc(CNCCCN4CCCCC4)cc3)nc(NC3CCNCC3)c2cc1OC` [Compound 17, 6,7-Dimethoxy-N^4-piperidin-4-yl-N^2-{4-[(3-piperidin-1-yl-propylamino)-methyl]-benzyl}-quinazoline-2,4-diamine], the results for the cytotoxic concentration (CC50) at 72 h in data set [1] and in data set [3] were 17.6 ± 3 µM and 28.1 ± 1.5 µM, respectively. The selectivity ratio at 72 h in data set [1] was found to be 672; in data set [3], 1070.
Take `COc1cc2nc(NCc3ccc(CNCCCNC4CCCCCC4)cc3)nc(NC3CCNCC3)c2cc1OC` [Compound 14, N^2-{4-[(3-Cycloheptylamino-propylamino)-methyl]-benzyl}-6,7-methoxy-N^4-piperidin-4-yl-quinazoline-2,4-diamine]: in data set [4], the “Selective Index CC50/EC50 CEM” value is 376 and the CC50 is 18.2 ± 4.5 µM. Moreover, in data set [5] (setting [7]), the EC50 was determined as 0.0484 ± 0.0034 µM. Further, in data set [6], the “Selective Index CC50/EC50 TZM-bl” value came to 399 and the CC50 is 19.3 ± 0.88 µM.
Consider `c1cc(CN2CCCNCCNCCCNCC2)ccc1CN1CCCNCCNCCCNCC1` [AMD3100, reference compound], for which the concentration giving a half-maximal response (EC50) in data set [5] (Human immunodeficiency virus 1, IIIB, TZM-bl) came to 0.0666 ± 0.0231 µM.
As to `COc1ccc2c(NC3CCNCC3)nc(NCc3ccc(CNCCCNC4CCCCC4)cc3)nc2c1` [Compound 10, N^2-{4-[(3-Cyclohexylamino-propylamino)-methyl]-benzyl}-7-methoxy-N^4-piperidin-4-yl-quinazoline-2,4-diamine], in data set [1], the CC50 at 72 h amounted to 1.6 ± 0.6 µM and the selectivity ratio at 72 h was 186. Further, in data set [2], the “fold increase in CXCR4 binding affinity” value was 4−5 fold. In addition, in data set [3], half-maximal cytotoxicity (CC50 at 72 h) was put at 10.8 ± 3.3 µM and the selectivity ratio at 72 h was 1260.
For `COc1ccc2c(NC3CCNCC3)nc(NCc3ccc(CNCCCNC4CCCCCC4)cc3)nc2c1` [Compound 13, N^2-{4-[(3-Cycloheptylamino-propylamino)-methyl]-benzyl}-7-methoxy-N^4-piperidin-4-yl-quinazoline-2,4-diamine], in data set [1], the midpoint of cytotoxicity, the CC50 at 72 h, lay at 6.1 ± 1.1 µM and the selectivity ratio at 72 h turned out to be 134. In data set [2], the “fold increase in CXCR4 binding affinity” value is reported as 4−5 fold. For the same compound, in data set [3], the half-maximal cytotoxic concentration (CC50) at 72 h was 10.8 ± 0.8 µM and the selectivity ratio at 72 h amounted to 238.
For the compound `CN1CCN(c2nc(NCc3ccc(CNCCCNC4CCCCC4)cc3)c3ncn(C)c3n2)CC1` [Compound 20, N-Cyclohexyl-N′-(4-{[9-methyl-2-(4-methyl-piperazin-1-yl)-9H-purin-6-ylamino]-methyl}-benzyl)-propane-1,3-diamine], the half-maximal cytotoxic concentration (CC50) at 72 h in data set [1] was 13.8 ± 1.8 µM; in data set [3], 11.2 ± 2.1 µM. Further, the selectivity ratio at 72 h came to 2120 in data set [1] and 1720 in data set [3]. The “fold decrease in CXCR4 binding affinity” value in data set [2] is 4−5 fold.
Turning to `c1nc2c(NCc3ccc(CNCCCNC4CCCCC4)cc3)nc(N3CCNCC3)nc2[nH]1` [Compound 18, N-Cyclohexyl-N′-{4-[(2-piperazin-1-yl-9H-purin-6-ylamino)-methyl]-benzyl}-propane-1,3-diamine], the CC50 at 72 h in data set [1] and in data set [3] was above 50 µM each time. For the same compound, the selectivity ratio at 72 h in data set [1] and in data set [3] was above 25000 each time.
On to `COc1ccc2c(NC3CCNCC3)nc(NCc3ccc(CNCCCN4CCCCC4)cc3)nc2c1` [Compound 16, 7-Methoxy-N^4-piperidin-4-yl-N^2-{4-[(3-piperidin-1-yl-propy-lamino)-methyl]-benzyl}-quinazoline-2,4-diamine], for which, in data set [4], the “Selective Index CC50/EC50 CEM” value is given as 511 and the CC50 came out at 13.8 ± 1.9 µM. In data set [5] (setting [7]), the 50% effective concentration (EC50) was 0.027 ± 0.0042 µM. In data set [6], the “Selective Index CC50/EC50 TZM-bl” value was found to be 1193 and the CC50 came to 32.2 ± 0.2 µM.
With `CC1(C)CN2C(CSC(=NC3CCCCC3)NC3CCCCC3)=CSC2=N1` [IT1t, reference compound], in data set [5] (setting [7]), the EC50 is above 0.07 µM.
As to `c1nc2c(NCCc3ccc(CNCCCNC4CCCCC4)cc3)nc(N3CCNCC3)nc2[nH]1` [Compound 23, N-Cyclohexyl-N′-{4-[2-(2-piperazin-1-yl-9H-purin-6-ylami-no)-ethyl]-benzyl}-propane-1,3-diamine], in data set [4], the “Selective Index CC50/EC50 CEM” value was found to be 15065 and the half-maximal cytotoxic concentration (CC50) came out at 46.7 ± 3.2 µM. For the same compound, in data set [5] (setting [7]), the EC50 was found to be 0.0031 ± 0.0007 µM. In addition, in data set [2], the “fold decrease in CXCR4 binding affinity” value is “around 2 fold”. Further, in data set [6], the “Selective Index CC50/EC50 TZM-bl” value is given as above 16129 and the CC50 is above 50 µM.
`COc1ccc2nc(NCc3ccc(CNCCCNC4CCCCCC4)cc3)nc(NC3CCNCC3)c2c1` [Compound 12, N^2-{4-[(3-Cycloheptylamino-propylamino)-methyl]-benzyl}-6-methoxy-N^4-piperidin-4-yl-quinazoline-2,4-diamine]: the CC50 at 72 h in data set [1] worked out at 6.5 ± 1.1 µM; in data set [3], 21.7 ± 7 µM. Further, the selectivity ratio at 72 h is 153 in data set [1] and 509 in data set [3]. For the same compound, the “fold increase in CXCR4 binding affinity” value in data set [2] is recorded as 4−5 fold.
`c1cc(CNCCCNC2CCCCC2)nc(CNc2nc(N3CCNCC3)nc3[nH]cnc23)c1` [Compound 26, N-Cyclohexyl-N′-{6-[(2-piperazin-1-yl-9H-purin-6-ylamino)-methyl]-pyridin-2-ylmethyl}-propane-1,3-diamine]: the CC50 at 72 h in data set [1] and in data set [3] was above 50 µM each time. Also, the selectivity ratio at 72 h in data set [1] and in data set [3] was above 20000 throughout. Besides, in data set [2], the “fold decrease in CXCR4 binding compared to compound 25” value is given as 4−10 fold.
With `COc1cc2nc(NCc3ccc(CNCCCNC4CCCCC4)cc3)nc(NC3CCNCC3)c2cc1OC` [Compound 11, N^2-{4-[(3-Cyclohexylamino-propylamino)-methyl]-benzyl}-6,7-dimethoxy-N^4-piperidin-4-yl-quinazoline-2,4-diamine], in data set [1], the midpoint of cytotoxicity, the CC50 at 72 h, lay at 17.5 ± 2.4 µM and the selectivity ratio at 72 h came out at 806. For the same compound, in data set [3], the cytotoxic concentration (CC50) at 72 h amounted to 23.1 ± 7 µM and the selectivity ratio at 72 h stood at 1060.

Source of the values: PMC4823997 (Journal of medicinal chemistry, 2015).
